US6534524B1, “Indazole compounds and pharmaceutical compositions for inhibiting protein kinases, and methods for their use” (Agouron Pharmaceuticals, Inc., priority 1999, dated 2003)

Test system: human umbilical vein endothelial cells (HUVEC)
Experiment: HUVEC proliferation assay (VEGF-stimulated, MTT);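 on % inhibition of the proliferation of HUVEC: relative to VEGF-stimulated control minus starvation-medium baseline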
Assay type: cell-based
Conditions: crude reaction mixtures; for % inhibition of the proliferation of HUVEC: Library II, Y=S; for % inhibition: Library III, HUVEC proliferation, nominal concentration of 0.5 nM
[1] = 0.5 mM (column head; text: nominal 0.5 nM)
[2] = 2 mM (column head; text: nominal 2 nM)

Compound	% inhibition of the proliferation of HUVEC [1] [%]	% inhibition of the proliferation of HUVEC [2] [%]	% inhibition [%]
CCCCN(CC)CCNC(=O)c1ccccc1Sc1ccc2c(/C=C/c3ccccn3)n[nH]c2c1	2	6	–
CN(C)c1ccc(CNC(=O)c2ccccc2Sc2ccc3c(/C=C/c4ccccn4)n[nH]c3c2)cc1	32	24	–
O=C(NC(CO)CO)c1ccccc1Sc1ccc2c(/C=C/c3ccccn3)n[nH]c2c1	48	8	–
CC(=O)NCCNC(=O)c1ccccc1Sc1ccc2c(/C=C/c3ccccn3)n[nH]c2c1	15	27	–
Cc1ccc(NC(=O)c2ccccc2Sc2ccc3c(/C=C/c4ccccn4)n[nH]c3c2)cc1O	–	–	6
Cc1cc(NC(=O)c2ccccc2Sc2ccc3c(/C=C/c4ccccn4)n[nH]c3c2)ccc1F	–	–	9
Cc1ccc(NC(=O)c2ccccc2Sc2ccc3c(/C=C/c4ccccn4)n[nH]c3c2)c(F)c1	–	–	2
O=C(Nc1cccc2cc(O)ccc12)c1ccccc1Sc1ccc2c(/C=C/c3ccccn3)n[nH]c2c1	–	–	−22
O=Nc1c(O)nc(O)nc1NC(=O)c1ccccc1Sc1ccc2c(/C=C/c3ccccn3)n[nH]c2c1	–	–	−18
O=C(Nc1ncc([N+](=O)[O-])s1)c1ccccc1Sc1ccc2c(/C=C/c3ccccn3)n[nH]c2c1	–	–	−15
O=C(Nc1ccc2c(c1)OCCO2)c1ccccc1Sc1ccc2c(/C=C/c3ccccn3)n[nH]c2c1	–	–	−1
O=C(Nc1cccc(F)c1)c1ccccc1Sc1ccc2c(/C=C/c3ccccn3)n[nH]c2c1	–	–	−11
O=C(Nc1cccc2cccnc12)c1ccccc1Sc1ccc2c(/C=C/c3ccccn3)n[nH]c2c1	–	–	3
CC(C)Oc1cccc(NC(=O)c2ccccc2Sc2ccc3c(/C=C/c4ccccn4)n[nH]c3c2)c1	–	–	1
CSc1nc(NC(=O)c2ccccc2Sc2ccc3c(/C=C/c4ccccn4)n[nH]c3c2)ns1	–	–	−27
Cn1nc(C2CC2)cc1NC(=O)c1ccccc1Sc1ccc2c(/C=C/c3ccccn3)n[nH]c2c1	–	–	−47
O=C(Nc1ccc2cccc(O)c2n1)c1ccccc1Sc1ccc2c(/C=C/c3ccccn3)n[nH]c2c1	–	–	33
O=C(Nc1ccc(C(F)(F)F)cn1)c1ccccc1Sc1ccc2c(/C=C/c3ccccn3)n[nH]c2c1	–	–	20
O=C(Nc1ncc(Cl)s1)c1ccccc1Sc1ccc2c(/C=C/c3ccccn3)n[nH]c2c1	–	–	−29
CCc1cccc(CC)c1NC(=O)c1ccccc1Sc1ccc2c(/C=C/c3ccccn3)n[nH]c2c1	–	–	−17
CC(C)c1cccc(C(C)C)c1NC(=O)c1ccccc1Sc1ccc2c(/C=C/c3ccccn3)n[nH]c2c1	–	–	−7
Cc1nc(NC(=O)c2ccccc2Sc2ccc3c(/C=C/c4ccccn4)n[nH]c3c2)n[nH]1	–	–	0
COC(=O)c1ccc(NC(=O)c2ccccc2Sc2ccc3c(/C=C/c4ccccn4)n[nH]c3c2)o1	–	–	−1
O=C(Nc1ncnc2[nH]ncc12)c1ccccc1Sc1ccc2c(/C=C/c3ccccn3)n[nH]c2c1	–	–	4
O=C(Nc1nc(O)nc2[nH]ncc12)c1ccccc1Sc1ccc2c(/C=C/c3ccccn3)n[nH]c2c1	–	–	−43

Compound	% inhibition of the proliferation of HUVEC [1] [%]	% inhibition of the proliferation of HUVEC [2] [%]	% inhibition [%]
CCCc1cccc(NC(=O)c2ccccc2Sc2ccc3c(/C=C/c4ccccn4)n[nH]c3c2)c1	–	–	−42
CCCCCc1ccc(NC(=O)c2ccccc2Sc2ccc3c(/C=C/c4ccccn4)n[nH]c3c2)cc1	–	–	13
CCC(C)c1ccc(NC(=O)c2ccccc2Sc2ccc3c(/C=C/c4ccccn4)n[nH]c3c2)cc1 (centres unmarked)	–	–	81
O=C(Nc1c(F)cccc1F)c1ccccc1Sc1ccc2c(/C=C/c3ccccn3)n[nH]c2c1	–	–	−31
O=C(Nc1cccc(-c2cc[nH]n2)c1)c1ccccc1Sc1ccc2c(/C=C/c3ccccn3)n[nH]c2c1	–	–	−3
CC(C)(C)C1CCC(NC(=O)c2ccccc2Sc2ccc3c(/C=C/c4ccccn4)n[nH]c3c2)CC1 (centres unmarked)	–	–	0
CC(CCCC(C)(C)O)NC(=O)c1ccccc1Sc1ccc2c(/C=C/c3ccccn3)n[nH]c2c1 (centres unmarked)	–	–	3
Cc1ccc(NC(=O)c2ccccc2Sc2ccc3c(/C=C/c4ccccn4)n[nH]c3c2)c(C)c1	–	–	13
COc1ccc(NC(=O)c2ccccc2Sc2ccc3c(/C=C/c4ccccn4)n[nH]c3c2)c(C)c1	–	–	0
O=C(Nc1cccnc1Cl)c1ccccc1Sc1ccc2c(/C=C/c3ccccn3)n[nH]c2c1	–	–	2
O=C(Nc1ncc(Cl)cc1Cl)c1ccccc1Sc1ccc2c(/C=C/c3ccccn3)n[nH]c2c1	–	–	4
COc1ccc(NC(=O)c2ccccc2Sc2ccc3c(/C=C/c4ccccn4)n[nH]c3c2)c(OC)n1	–	–	20
O=C(Nc1ccc(Cl)nc1)c1ccccc1Sc1ccc2c(/C=C/c3ccccn3)n[nH]c2c1	–	–	2
N#Cc1c(NC(=O)c2ccccc2Sc2ccc3c(/C=C/c4ccccn4)n[nH]c3c2)sc2c1CCC2	–	–	−9
Cc1ccc(O)c(NC(=O)c2ccccc2Sc2ccc3c(/C=C/c4ccccn4)n[nH]c3c2)c1	–	–	−1
O=C(Nc1cccc2c(O)cccc12)c1ccccc1Sc1ccc2c(/C=C/c3ccccn3)n[nH]c2c1	–	–	4
Cc1cc(O)ccc1NC(=O)c1ccccc1Sc1ccc2c(/C=C/c3ccccn3)n[nH]c2c1	–	–	12
COC(CCCNC(=O)c1ccccc1Sc1ccc2c(/C=C/c3ccccn3)n[nH]c2c1)OC	–	–	9
Cc1ccnc(NC(=O)c2ccccc2Sc2ccc3c(/C=C/c4ccccn4)n[nH]c3c2)c1	–	–	−6
NC(=O)c1ccc(NC(=O)c2ccccc2Sc2ccc3c(/C=C/c4ccccn4)n[nH]c3c2)nc1	–	–	−2
CC(=O)c1cccc(NC(=O)c2ccccc2Sc2ccc3c(/C=C/c4ccccn4)n[nH]c3c2)c1	–	–	5
CC(=O)c1ccc(NC(=O)c2ccccc2Sc2ccc3c(/C=C/c4ccccn4)n[nH]c3c2)cc1	–	–	6
O=C(Nc1ccc2ccccc2n1)c1ccccc1Sc1ccc2c(/C=C/c3ccccn3)n[nH]c2c1	–	–	18
CCc1ccnc(NC(=O)c2ccccc2Sc2ccc3c(/C=C/c4ccccn4)n[nH]c3c2)c1	–	–	20
CCc1ccc(C)nc1NC(=O)c1ccccc1Sc1ccc2c(/C=C/c3ccccn3)n[nH]c2c1	–	–	−23

Compound	% inhibition of the proliferation of HUVEC [1] [%]	% inhibition of the proliferation of HUVEC [2] [%]	% inhibition [%]
COc1ccc(NC(=O)c2ccccc2Sc2ccc3c(/C=C/c4ccccn4)n[nH]c3c2)cc1F	–	–	9
COC(=O)c1nccnc1NC(=O)c1ccccc1Sc1ccc2c(/C=C/c3ccccn3)n[nH]c2c1	–	–	7
CCOC(=O)c1ccccc1NC(=O)c1ccccc1Sc1ccc2c(/C=C/c3ccccn3)n[nH]c2c1	–	–	−4
Cc1c(O)ccc(NC(=O)c2ccccc2Sc2ccc3c(/C=C/c4ccccn4)n[nH]c3c2)c1C	–	–	4
O=C(Nc1ccc(O)cc1Cl)c1ccccc1Sc1ccc2c(/C=C/c3ccccn3)n[nH]c2c1	–	–	7
O=C(Nc1nc[nH]c1[N+](=O)[O-])c1ccccc1Sc1ccc2c(/C=C/c3ccccn3)n[nH]c2c1	–	–	7
O=C(Nc1ncnc2[nH]cnc12)c1ccccc1Sc1ccc2c(/C=C/c3ccccn3)n[nH]c2c1	–	–	18
O=C(Nc1nc(Cl)ncc1F)c1ccccc1Sc1ccc2c(/C=C/c3ccccn3)n[nH]c2c1	–	–	11
O=C(Nc1ccc2c(c1)C(=O)NC2=O)c1ccccc1Sc1ccc2c(/C=C/c3ccccn3)n[nH]c2c1	–	–	−31
NC(=O)c1[nH]cnc1NC(=O)c1ccccc1Sc1ccc2c(/C=C/c3ccccn3)n[nH]c2c1	–	–	−1
CC(C)(C)c1ccc(O)c(NC(=O)c2ccccc2Sc2ccc3c(/C=C/c4ccccn4)n[nH]c3c2)c1	–	–	−3
Cc1cccc(O)c1NC(=O)c1ccccc1Sc1ccc2c(/C=C/c3ccccn3)n[nH]c2c1	–	–	11
O=C(Nc1cc(Cl)ccc1Cl)c1ccccc1Sc1ccc2c(/C=C/c3ccccn3)n[nH]c2c1	–	–	15
Cc1cccc(C(C)C)c1NC(=O)c1ccccc1Sc1ccc2c(/C=C/c3ccccn3)n[nH]c2c1	–	–	−37
Cc1cccc(C)c1NC(=O)c1ccccc1Sc1ccc2c(/C=C/c3ccccn3)n[nH]c2c1	–	–	−20
COc1cccc(C)c1NC(=O)c1ccccc1Sc1ccc2c(/C=C/c3ccccn3)n[nH]c2c1	–	–	8
C=C(C)c1ccccc1NC(=O)c1ccccc1Sc1ccc2c(/C=C/c3ccccn3)n[nH]c2c1	–	–	−41
CC(C)(C)c1nnc(NC(=O)c2ccccc2Sc2ccc3c(/C=C/c4ccccn4)n[nH]c3c2)s1	–	–	−28
Cc1nnc(NC(=O)c2ccccc2Sc2ccc3c(/C=C/c4ccccn4)n[nH]c3c2)s1	–	–	−20
O=C(Nc1nnc(C2CC2)s1)c1ccccc1Sc1ccc2c(/C=C/c3ccccn3)n[nH]c2c1	–	–	−20
O=C(NCC1CCCCC1)c1ccccc1Sc1ccc2c(/C=C/c3ccccn3)n[nH]c2c1	–	–	3
O=C(NC1CCCCC1C1CCCCC1)c1ccccc1Sc1ccc2c(/C=C/c3ccccn3)n[nH]c2c1 (centres unmarked)	–	–	11
CCOc1ccccc1CCNC(=O)c1ccccc1Sc1ccc2c(/C=C/c3ccccn3)n[nH]c2c1	–	–	1
